What all share (assay): Glasshouse assay for herbicidal activity (pre- and post-emergence), percentage phytotoxicity
Common to all, as to format: in vivo

One assay deals with Lolium perenne (LOLPE). Particulars: Lolium perenne. Put shortly: (§1)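 Pot-grown plants treated one day after sowing (pre-emergence) or at about 12 days (post-emergence); glasshouse at 24/18° C (warm) or 20/16° C (cool species) day/night, 16 h light, 65% humidity. Visual % phytotoxicity (0 = none, 100 = total damage) scored at 15 DAA post or 20 DAA pre.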
In the next assay the test system is Avena fatua (AVEFA). Particulars: Avena fatua. In outline: as §1
Assay [1] has as its system Alopecurus myosuroides (ALOMY). To be noted: Alopecurus myosuroides. In outline:
as §1

For assay [2], the system named is Echinochloa crus-galli (ECHCG). To be noted: Echinochloa crus-galli. In outline: as §1
The mark [3] stands for this setting: post-emergence, 360 h, Rate 250 g/ha, post-emergence, visual assessment 15 DAA, 100%=total damage, 0%=no damage, read-out: Post-emergence herbicidal activity (percentage phytotoxicity) LOLPE POST.
Setting [4] is: pre-emergence, 480 h, Rate 250 g/ha, pre-emergence, visual assessment 20 DAA, 100%=total damage, 0%=no damage, read-out: Pre-emergence herbicidal activity (percentage phytotoxicity) LOLPE PRE.
Setting [5] is: post-emergence, 360 h, Rate 250 g/ha, post-emergence, visual assessment 15 DAA, 100%=total damage, 0%=no damage, read-out: Post-emergence herbicidal activity (percentage phytotoxicity) AVEFA POST.
Where [6] appears, read: pre-emergence, 480 h, Rate 250 g/ha, pre-emergence, visual assessment 20 DAA, 100%=total damage, 0%=no damage, read-out: Pre-emergence herbicidal activity (percentage phytotoxicity) AVEFA PRE.
Where [7] appears, read: post-emergence, 360 h, Rate 250 g/ha, post-emergence, visual assessment 15 DAA, 100%=total damage, 0%=no damage, read-out: Post-emergence herbicidal activity (percentage phytotoxicity) ALOMY POST.
Where [8] appears, read: pre-emergence, 480 h, Rate 250 g/ha, pre-emergence, visual assessment 20 DAA, 100%=total damage, 0%=no damage, read-out: Pre-emergence herbicidal activity (percentage phytotoxicity) ALOMY PRE.
Where [9] appears, read: post-emergence, 360 h, Rate 250 g/ha, post-emergence, visual assessment 15 DAA, 100%=total damage, 0%=no damage, read-out: Post-emergence herbicidal activity (percentage phytotoxicity) ECHCG POST.
Where [10] appears, read: pre-emergence, 480 h, Rate 250 g/ha, pre-emergence, visual assessment 20 DAA, 100%=total damage, 0%=no damage, read-out: Pre-emergence herbicidal activity (percentage phytotoxicity) ECHCG PRE.
[11] abbreviates: post-emergence, 360 h, 250 g/ha, post-emergence, 15 DAA, visual assessment (100%=total damage, 0%=no damage), read-out: Post-emergence herbicidal activity (percentage phytotoxicity) LOLPE POST.
[12] abbreviates: pre-emergence, 480 h, 250 g/ha, pre-emergence, 20 DAA, visual assessment (100%=total damage, 0%=no damage), read-out: Pre-emergence herbicidal activity (percentage phytotoxicity) LOLPE PRE.
Setting [13] is: post-emergence, 360 h, 250 g/ha, post-emergence, 15 DAA, visual assessment (100%=total damage, 0%=no damage), read-out: Post-emergence herbicidal activity (percentage phytotoxicity) AVEFA POST.
Setting [14] is: pre-emergence, 480 h, 250 g/ha, pre-emergence, 20 DAA, visual assessment (100%=total damage, 0%=no damage), read-out: Pre-emergence herbicidal activity (percentage phytotoxicity) AVEFA PRE.
The mark [15] stands for this setting: post-emergence, 360 h, 250 g/ha, post-emergence, 15 DAA, visual assessment (100%=total damage, 0%=no damage), read-out: Post-emergence herbicidal activity (percentage phytotoxicity) ALOMY POST.
The mark [16] stands for this setting: pre-emergence, 480 h, 250 g/ha, pre-emergence, 20 DAA, visual assessment (100%=total damage, 0%=no damage), read-out: Pre-emergence herbicidal activity (percentage phytotoxicity) ALOMY PRE.
The mark [17] stands for this setting: post-emergence, 360 h, 250 g/ha, post-emergence, 15 DAA, visual assessment (100%=total damage, 0%=no damage), read-out: Post-emergence herbicidal activity (percentage phytotoxicity) ECHCG POST.
Where [18] appears, read: pre-emergence, 480 h, 250 g/ha, pre-emergence, 20 DAA, visual assessment (100%=total damage, 0%=no damage), read-out: Pre-emergence herbicidal activity (percentage phytotoxicity) ECHCG PRE.
Where [19] appears, read: post-emergence, 360 h, Rate 250 g/ha, post-emergence, assessed visually 15 DAA, 100%=total damage, 0%=no damage, read-out: Post-emergence herbicidal activity (percentage phytotoxicity) LOLPE POST.
Where [20] appears, read: pre-emergence, 480 h, Rate 250 g/ha, pre-emergence, assessed visually 20 DAA, 100%=total damage, 0%=no damage, read-out: Pre-emergence herbicidal activity (percentage phytotoxicity) LOLPE PRE.
[21] abbreviates: post-emergence, 360 h, Rate 250 g/ha, post-emergence, assessed visually 15 DAA, 100%=total damage, 0%=no damage, read-out: Post-emergence herbicidal activity (percentage phytotoxicity) AVEFA POST.
Where [22] appears, read: pre-emergence, 480 h, Rate 250 g/ha, pre-emergence, assessed visually 20 DAA, 100%=total damage, 0%=no damage, read-out: Pre-emergence herbicidal activity (percentage phytotoxicity) AVEFA PRE.
Where [23] appears, read: post-emergence, 360 h, Rate 250 g/ha, post-emergence, assessed visually 15 DAA, 100%=total damage, 0%=no damage, read-out: Post-emergence herbicidal activity (percentage phytotoxicity) ALOMY POST.
[24] abbreviates: pre-emergence, 480 h, Rate 250 g/ha, pre-emergence, assessed visually 20 DAA, 100%=total damage, 0%=no damage, read-out: Pre-emergence herbicidal activity (percentage phytotoxicity) ALOMY PRE.
Setting [25] is: post-emergence, 360 h, Rate 250 g/ha, post-emergence, assessed visually 15 DAA, 100%=total damage, 0%=no damage, read-out: Post-emergence herbicidal activity (percentage phytotoxicity) ECHCG POST.
[26] abbreviates: pre-emergence, 480 h, Rate 250 g/ha, pre-emergence, assessed visually 20 DAA, 100%=total damage, 0%=no damage, read-out: Pre-emergence herbicidal activity (percentage phytotoxicity) ECHCG PRE.

Structures are written as SMILES. Like-named read-outs stand apart in the source and are kept apart here.

For the compound `Cc1cc(-c2ccc(F)cn2)cc(C)c1C1C(=O)CC(CC(=O)N(C)C(C)C)C1=O` (centres unmarked) [Compound B396], the pest or weed control at 250 g/ha in the assay with Lolium perenne (LOLPE) (setting [3]) came to 90%; with Lolium perenne (LOLPE) (setting [4]), 100%; in the assay on Avena fatua (AVEFA) (setting [5]), 100%; in the assay on Avena fatua (AVEFA) (setting [6]) it was 100%; in assay [1] (setting [7]) it was 90%; in assay [1] (setting [8]), 100%. In addition, the pest or weed control at 250 g/ha in assay [2] (setting [9]) and in assay [2] (setting [10]) was 100% in each case.
For the compound `Cc1cc(C)c(C2C(=O)CC(CC(=O)NCC(CF)CF)C2=O)c(C)c1` (centres unmarked) [Compound B76], the pest or weed control at 250 g/ha in the assay on Lolium perenne (LOLPE) (setting [11]) was found to be 80%; in the assay on Lolium perenne (LOLPE) (setting [12]) it was 90%; with Avena fatua (AVEFA) (setting [13]) it was 80%; in the assay with Avena fatua (AVEFA) (setting [14]), 70%; in assay [1] (setting [15]), 80%; in assay [1] (setting [16]), 90%. For the same compound, the pest or weed control at 250 g/ha in assay [2] (setting [17]) was found to be 80%; in assay [2] (setting [18]), 90%.
For `Cc1cc(-c2ncc(Cl)cn2)cc(C)c1C1C(=O)CC(CC(=O)N(C)C(C)(C)C)C1=O` (centres unmarked) [Compound B348], the pest or weed control at 250 g/ha is 100% with Lolium perenne (LOLPE) (setting [3]); 90% in the assay on Lolium perenne (LOLPE) (setting [4]); 100% in the assay with Avena fatua (AVEFA) (setting [5]); 80% with Avena fatua (AVEFA) (setting [6]); 100% in assay [1] (setting [7]); 80% in assay [1] (setting [8]). In addition, the pest or weed control at 250 g/ha in assay [2] (setting [9]) and in assay [2] (setting [10]) was 100% each time.
In the case of `Cc1cc(C)c(C2C(=O)CC(CC(N)=O)C2=O)c(C)c1` (centres unmarked) [Compound B8], the pest or weed control at 250 g/ha in the assay with Lolium perenne (LOLPE) (setting [11]) was found to be 90%; in the assay with Lolium perenne (LOLPE) (setting [12]) it was 100%; with Avena fatua (AVEFA) (setting [13]), 100%; with Avena fatua (AVEFA) (setting [14]), 90%; in assay [1] (setting [15]), 80%; in assay [1] (setting [16]) it was 80%. Besides, the pest or weed control at 250 g/ha in assay [2] (setting [17]) worked out at 100%; in assay [2] (setting [18]) it was 90%.
Consider `C#CC(C)(COC)NC(=O)CC1CC(=O)C(c2c(C)cc(C)cc2C)C1=O` (centres unmarked) [Compound B55], for which the pest or weed control at 250 g/ha in the assay with Lolium perenne (LOLPE) (setting [11]) worked out at 70%; in the assay with Lolium perenne (LOLPE) (setting [12]), 70%; with Avena fatua (AVEFA) (setting [13]) it was 60%; with Avena fatua (AVEFA) (setting [14]), 30%; in assay [1] (setting [15]) it was 80%; in assay [1] (setting [16]), 80%. The pest or weed control at 250 g/ha in assay [2] (setting [17]) came to 60%; in assay [2] (setting [18]), 50%.
In the case of `Cc1cc(-c2ncc(F)cc2F)cc(C)c1C1C(=O)CC(CC(=O)N2CCOCC2)C1=O` (centres unmarked) [Compound B101], the pest or weed control at 250 g/ha is 100% with Lolium perenne (LOLPE) (setting [11]); 100% with Lolium perenne (LOLPE) (setting [12]); 90% in the assay on Avena fatua (AVEFA) (setting [13]); 70% with Avena fatua (AVEFA) (setting [14]); 90% in assay [1] (setting [15]); 90% in assay [1] (setting [16]). Moreover, the pest or weed control at 250 g/ha in assay [2] (setting [17]) and in assay [2] (setting [18]) was 100% each time.
Turning to `COCC(C)NC(=O)CC1CC(=O)C(c2c(C)cc(-c3ncc(Cl)cn3)cc2C)C1=O` (centres unmarked) [Compound B346], the pest or weed control at 250 g/ha with Lolium perenne (LOLPE) (setting [3]) turned out to be 100%; in the assay with Lolium perenne (LOLPE) (setting [4]), 100%; in the assay with Avena fatua (AVEFA) (setting [5]) it was 100%; with Avena fatua (AVEFA) (setting [6]), 90%; in assay [1] (setting [7]), 100%; in assay [1] (setting [8]) it was 100%. For the same compound, the pest or weed control at 250 g/ha in assay [2] (setting [9]) and in assay [2] (setting [10]) was 100% each time.
In the case of `CC#Cc1cc(C)c(C2C(=O)CC(CC(=O)NCCCOC)C2=O)c(C)c1` (centres unmarked) [Compound B156], the pest or weed control at 250 g/ha (in the assay on Lolium perenne (LOLPE) (setting [11]); in the assay on Lolium perenne (LOLPE) (setting [12]); in the assay with Avena fatua (AVEFA) (setting [13]); with Avena fatua (AVEFA) (setting [14]); in assay [1] (setting [15]); in assay [1] (setting [16])) was 100% throughout. The pest or weed control at 250 g/ha in assay [2] (setting [17]) and in assay [2] (setting [18]) was 100% in each case.
As to `Cc1cc(-n2cc(Cl)cn2)cc(C)c1C1C(=O)CC(CC(=O)NC2CC2)C1=O` (centres unmarked) [Compound A75], the pest or weed control at 250 g/ha in the assay with Lolium perenne (LOLPE) (setting [19]) was found to be 90%; in the assay with Lolium perenne (LOLPE) (setting [20]) it was 90%; in the assay on Avena fatua (AVEFA) (setting [21]) it was 100%; with Avena fatua (AVEFA) (setting [22]), 90%; in assay [1] (setting [23]) it was 100%; in assay [1] (setting [24]) it was 100%. For the same compound, the pest or weed control at 250 g/ha in assay [2] (setting [25]) and in assay [2] (setting [26]) was 100% throughout.
Consider `CC#Cc1cc(C)c(C2C(=O)CC(CC(=O)NCCCC)C2=O)c(CC)c1` (centres unmarked) [Compound A51], for which the pest or weed control at 250 g/ha (in the assay on Lolium perenne (LOLPE) (setting [19]); with Lolium perenne (LOLPE) (setting [20]); in the assay with Avena fatua (AVEFA) (setting [21]); with Avena fatua (AVEFA) (setting [22]); in assay [1] (setting [23]); in assay [1] (setting [24])) was 100% in each case. The pest or weed control at 250 g/ha in assay [2] (setting [25]) and in assay [2] (setting [26]) was 100% throughout.

(Values after patent US10206394B2, “Herbicidal compounds” (Syngenta Participations AG, priority 2014, dated 2019).)
